Our source for the AC50, IC50 and EC50 values is ChEMBL document CHEMBL1201862, “PubChem BioAssay data set” (2004).

The nature of experiment [1]: HepG2 cell cytotoxicity, dose response, cytotoxicity control for Shn3 inhibitor project, CellTiter-Glo, cherry-picked (AID 624134). The experiment is classed as functional, cell-based. For orientation: ATP-based viability assays read luminescence as a measure of living cells.
Experiment [2] in a line: Shn3 3'UTR reporter inhibitors, dose response, cell-based, Clone20 osteoblasts, firefly luciferase, cherry-picked (AID 624132).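 Also: firefly luciferase luminescence from reporter carrying the Shn3 3'UTR in osteoblasts.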 The experiment is classed as functional.
Experiment [3] in a line: control 3'UTR Renilla luciferase suppression, dose response, counter-screen for Shn3 inhibitor project, cell-based, Clone20-Shn3RL, cherry-picked (AID 624133). The experiment is classed as functional.
A further experiment addresses Nonstructural protein 1 (Influenza A virus, UniProt Q194T2). The experiment is classed as functional, Influenza A virus (A/California/07/2009(H1N1)).
For experiment [4], the target named is FAD-linked sulfhydryl oxidase ALR (Homo sapiens, UniProt P55789). Nature of the experiment: inhibitors of human ALR sulfhydryl oxidase, dose response, biochemical, H2O2 detection, luminescence, cherry-pick (AID 493248).
FAD-linked sulfhydryl oxidase ALR, sequence (P55789 whole entry): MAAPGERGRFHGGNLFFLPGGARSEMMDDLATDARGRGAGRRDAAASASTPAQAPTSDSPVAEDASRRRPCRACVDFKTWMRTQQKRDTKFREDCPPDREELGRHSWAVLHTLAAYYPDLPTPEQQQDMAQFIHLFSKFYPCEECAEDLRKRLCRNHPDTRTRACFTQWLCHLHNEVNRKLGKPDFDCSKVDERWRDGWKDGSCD
Experiment [5] can be described thus: intracellular Trypanosoma cruzi inhibitors in host cells – cell-based, plate reader, cherry-pick samples, set 3, dose response (AID 651818).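 Also: compounds incubated with infected cells for about four days.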 The experiment is classed as functional.
In another experiment the target is Cytochrome P450 2C9 (Homo sapiens, UniProt P11712).
Cytochrome P450 2C9, sequence (P11712 whole entry): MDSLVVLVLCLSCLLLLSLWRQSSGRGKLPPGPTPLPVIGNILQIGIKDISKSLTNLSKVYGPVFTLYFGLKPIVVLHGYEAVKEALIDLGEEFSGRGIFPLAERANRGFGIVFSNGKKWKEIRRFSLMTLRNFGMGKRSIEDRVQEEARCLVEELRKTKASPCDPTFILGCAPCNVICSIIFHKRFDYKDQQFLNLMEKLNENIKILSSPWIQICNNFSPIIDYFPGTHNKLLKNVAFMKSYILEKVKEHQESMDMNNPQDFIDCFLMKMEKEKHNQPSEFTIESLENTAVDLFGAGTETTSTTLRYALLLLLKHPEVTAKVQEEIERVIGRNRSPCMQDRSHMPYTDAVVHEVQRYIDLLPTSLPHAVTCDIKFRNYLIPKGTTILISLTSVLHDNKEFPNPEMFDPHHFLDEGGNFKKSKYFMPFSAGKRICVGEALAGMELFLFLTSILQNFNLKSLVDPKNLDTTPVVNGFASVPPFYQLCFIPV
In the next experiment the test system is H9c2. In words: cells. The experiment is classed as functional, cell-based. The note with it: Rattus norvegicus, H9c2, Myocardium.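 Also: confirmatory concentration-response retest of ultra-high-throughput screening hits for modulation of myocardial damage; cell death induced by hydrogen peroxide oxidative stress; compound pretreatment for 60 min then peroxide exposure for 2 h; potency is for protecting the cells against peroxide damage rather than for killing them.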
The target of the next experiment is Cytochrome P450 2C19 (Homo sapiens, UniProt P33261). Nature of the experiment: Cytochrome panel assay with activity outcomes. Panel member name: p450-cyp2c19 Compounds with AC50 equal or less than 10 uM are considered active. The experiment is classed as functional. Particulars: read-out: AC50.
Cytochrome P450 2C19, sequence (P33261 whole entry): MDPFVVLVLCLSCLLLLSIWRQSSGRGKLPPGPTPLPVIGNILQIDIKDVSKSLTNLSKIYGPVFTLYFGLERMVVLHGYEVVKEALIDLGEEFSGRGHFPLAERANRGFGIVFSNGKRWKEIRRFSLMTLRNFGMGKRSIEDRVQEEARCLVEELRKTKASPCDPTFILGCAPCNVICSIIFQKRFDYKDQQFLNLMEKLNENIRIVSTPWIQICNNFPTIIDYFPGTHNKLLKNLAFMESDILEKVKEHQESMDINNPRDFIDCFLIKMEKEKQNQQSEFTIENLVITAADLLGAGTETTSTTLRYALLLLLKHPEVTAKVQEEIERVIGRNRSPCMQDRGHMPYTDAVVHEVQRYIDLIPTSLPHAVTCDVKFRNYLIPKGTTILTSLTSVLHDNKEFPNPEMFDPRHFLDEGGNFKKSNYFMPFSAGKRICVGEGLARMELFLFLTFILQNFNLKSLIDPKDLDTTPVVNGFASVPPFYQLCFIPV
A further experiment has as its target T1, Cytochrome P450 1A2 (Homo sapiens, UniProt P05177).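 Also: PubChem cytochrome P450 panel assay, CYP1A2 panel member.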
T1 sequence (P05177 whole entry): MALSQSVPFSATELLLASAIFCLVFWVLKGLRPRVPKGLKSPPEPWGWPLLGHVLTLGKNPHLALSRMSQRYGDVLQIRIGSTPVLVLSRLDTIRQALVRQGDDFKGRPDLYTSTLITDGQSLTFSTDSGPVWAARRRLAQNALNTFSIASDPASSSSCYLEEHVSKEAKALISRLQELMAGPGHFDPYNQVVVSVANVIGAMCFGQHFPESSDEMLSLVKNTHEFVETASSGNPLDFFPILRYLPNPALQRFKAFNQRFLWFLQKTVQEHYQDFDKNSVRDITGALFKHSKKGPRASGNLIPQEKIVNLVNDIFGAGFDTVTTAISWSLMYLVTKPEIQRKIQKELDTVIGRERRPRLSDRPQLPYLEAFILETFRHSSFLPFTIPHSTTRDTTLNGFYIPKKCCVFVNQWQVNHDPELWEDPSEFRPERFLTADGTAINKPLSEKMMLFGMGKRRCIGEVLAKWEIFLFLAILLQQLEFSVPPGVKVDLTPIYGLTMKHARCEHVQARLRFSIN

The target of the next experiment is Cytochrome P450 3A4 (Homo sapiens, UniProt P08684).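 Also: CYP3A4 tested as one member of a cytochrome P450 panel screen.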
Cytochrome P450 3A4, sequence (P08684 whole entry): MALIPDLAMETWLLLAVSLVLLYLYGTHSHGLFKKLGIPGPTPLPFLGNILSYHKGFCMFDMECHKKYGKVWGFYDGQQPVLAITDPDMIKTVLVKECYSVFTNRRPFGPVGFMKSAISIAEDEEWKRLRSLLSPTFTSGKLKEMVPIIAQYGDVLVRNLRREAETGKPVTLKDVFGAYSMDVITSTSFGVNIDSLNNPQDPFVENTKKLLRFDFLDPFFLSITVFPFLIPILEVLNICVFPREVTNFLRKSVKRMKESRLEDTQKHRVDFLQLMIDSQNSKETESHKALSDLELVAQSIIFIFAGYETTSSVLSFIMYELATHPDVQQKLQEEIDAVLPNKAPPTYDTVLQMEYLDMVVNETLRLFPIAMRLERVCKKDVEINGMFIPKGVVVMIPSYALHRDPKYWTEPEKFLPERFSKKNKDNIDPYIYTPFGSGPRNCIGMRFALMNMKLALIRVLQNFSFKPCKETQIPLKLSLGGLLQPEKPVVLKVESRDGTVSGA
The next experiment relates to INS1. In words: beta cell apoptosis inhibitors, cytokine rescue, dose response, luminescence, retest (AID 449756).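 Also: cell death triggered by IL-1 beta plus TNF-alpha plus IFN-gamma mixture; protective hits raise ATP signal compared with cytokine alone wells.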 Particulars: Rattus norvegicus. The experiment is classed as functional, cell-based.
The nature of experiment [6]: cytotoxicity toward NIH3T3 fibroblasts, dose response, counter-screen, cell-based, ATP luminescence, mouse fibroblasts (AID 2010).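 Also: cells exposed to compound for about 90 hours before reading.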 The experiment is classed as functional.
Another experiment relates to Streptococcus. Nature of the experiment: Group A Streptococcus viability loss, dose response, counter-screen for streptokinase expression inhibitor project, luminescence, BacTiterGlo (AID 1915).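 Also: potency for reduction of bacterial viability or growth.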 The experiment is classed as functional, organism-based. Background: Counterscreens check selectivity or assay interference.
Experiment [7] relates to Streptococcus sp. 'group A'. Nature of the experiment: growth inhibition of control SK(-) GAS strain, dose response, counter-screen for streptokinase expression inhibitor project, luminescence, kanamycin, BacTiterGlo, confirmation (AID 1900). The experiment is classed as functional, organism-based.
Experiment [8] can be described thus: Luminescence Cell-Based Dose Response HTS to Identify Inhibitors of 5'UTR Stem-Loop Driven Prion Protein mRNA Translation in H4 Neuroglioblastoma Cells. [Related pubchem assays: 1827 (Project Summary), 1813 (Primary HTS)]. The experiment is classed as functional.
The nature of experiment [9]: inhibitors of intracellular T. cruzi replication, confirmation, NIH3T3 host cells, beta-gal luminescence (AID 2044).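 Also: intracellular parasites grown in NIH/3T3 mouse fibroblasts as host cells; luminescent beta-galactosidase reporter signal from transgenic T. cruzi replicating inside host cells; inhibitors lower the luminescence signal.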 The experiment is classed as functional, cell-based.
In another experiment the target is T2, Streptokinase A (Streptococcus pyogenes serotype M1, UniProt P10520).
T2 sequence (P10520 whole entry): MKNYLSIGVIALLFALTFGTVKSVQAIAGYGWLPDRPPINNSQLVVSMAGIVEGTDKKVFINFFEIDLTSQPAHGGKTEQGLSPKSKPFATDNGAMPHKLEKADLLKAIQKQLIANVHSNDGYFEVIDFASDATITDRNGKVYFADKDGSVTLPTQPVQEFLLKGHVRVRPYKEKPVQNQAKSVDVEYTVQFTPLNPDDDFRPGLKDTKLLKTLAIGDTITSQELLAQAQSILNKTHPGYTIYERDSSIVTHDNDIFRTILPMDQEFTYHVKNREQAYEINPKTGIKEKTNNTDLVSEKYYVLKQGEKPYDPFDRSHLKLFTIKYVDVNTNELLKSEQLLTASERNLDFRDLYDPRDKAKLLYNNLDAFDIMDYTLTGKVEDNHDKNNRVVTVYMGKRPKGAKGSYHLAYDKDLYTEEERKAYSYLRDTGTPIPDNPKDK
Nature of the experiment: S. pyogenes streptokinase expression inhibitors, potency, dose response, plasminogen activation absorbance, OD405 (AID 1914).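 Also: secreted streptokinase activity via plasminogen activation per viability signal from cell pellet.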 The experiment is classed as functional, Streptococcus pyogenes M1 GAS.

A short description of experiment [10]: inhibitors of SNCA 5'UTR-driven reporter translation, confirmation, H4 neuroglioma cells, luminescence (AID 1988). The experiment is classed as functional, cell-based.
The nature of experiment [11]: inhibitors of firefly luciferase expression or activity, dose response, H4 neuroglioma cells, luminescence (AID 1990). The experiment is classed as functional, cell-based.
The target in experiment [12] is Induced myeloid leukemia cell differentiation protein Mcl-1 (Homo sapiens, UniProt Q07820). The experiment is classed as functional.
Induced myeloid leukemia cell differentiation protein Mcl-1, sequence (Q07820 whole entry, the tested form may be a part): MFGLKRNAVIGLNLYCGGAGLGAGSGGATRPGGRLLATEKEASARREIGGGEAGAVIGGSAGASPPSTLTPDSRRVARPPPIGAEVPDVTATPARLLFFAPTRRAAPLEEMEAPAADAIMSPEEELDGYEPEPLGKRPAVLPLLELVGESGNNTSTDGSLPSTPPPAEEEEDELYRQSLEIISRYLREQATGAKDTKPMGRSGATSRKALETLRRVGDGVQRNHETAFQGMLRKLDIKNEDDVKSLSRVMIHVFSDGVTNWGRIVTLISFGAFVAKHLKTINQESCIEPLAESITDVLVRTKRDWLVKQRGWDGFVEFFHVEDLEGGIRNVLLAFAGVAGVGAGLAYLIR
The nature of experiment [13]: inhibitors of clade B AD8 Env fusion, dose response, cell-based, cherry-pick (AID 652062).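 Also: luciferase signal from cell-cell fusion driven by HIV-1 clade B AD8 Env; potency is for inhibitors of fusion seen as a drop in luminescence.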 The experiment is classed as functional.
The nature of experiment [14]: ZM109 Env clade C HIV-1 fusion inhibitors, dose response, HeLa effector, CEM target cells, luciferase, cherry-pick (AID 652058). The experiment is classed as functional, cell-based.
Experiment [15] can be described thus: inhibitors of HIV Env-driven cell fusion, dose response, cherry-pick (AID 652057). The experiment is classed as functional, cell-based.

A word on the AC50: it is the concentration giving half of the maximal activity seen. For orientation: IC50 means the concentration that inhibits the measured activity by half. For orientation: EC50 means the concentration giving half of the maximal effect.

The source made the active and inactive calls.

Nonstructural protein 1, sequence (Q194T2 whole entry): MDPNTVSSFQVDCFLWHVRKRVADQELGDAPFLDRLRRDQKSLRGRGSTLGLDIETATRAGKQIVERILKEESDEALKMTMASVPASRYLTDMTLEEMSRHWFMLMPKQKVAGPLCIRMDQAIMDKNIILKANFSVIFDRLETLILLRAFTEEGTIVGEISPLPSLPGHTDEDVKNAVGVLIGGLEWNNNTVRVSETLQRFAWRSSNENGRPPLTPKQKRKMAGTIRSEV

`CCOC(=O)c1c(NC(=O)C2c3ccccc3Oc3ccccc32)sc(C(C)=O)c1C`: the AC50 in [1] is 61.5 µM (active); in [2] it was 4.67 µM (active); in experiment [3] it was 13.6 µM (active).

For the molecule `Oc1cc(-c2cccnc2)cc2cccnc12`, the AC50 in experiment [1] is 10.9 µM (active); in experiment [2], 9.27 µM (active); in experiment [3], 4.04 µM (active). In addition, the IC50 on Nonstructural protein 1 was 15.6 µM (active).

As to `O=C(Nc1ccc(N2CCCCC2)cc1)c1cccnc1`, the AC50 in experiment [4] was 21.6 µM (active).

As for `C[C@@H]1CCCCO[C@@H](CN(C)C(=O)Nc2ccc(C(F)(F)F)cc2)[C@@H](C)CN([C@H](C)CO)C(=O)c2cc(NC(=O)Nc3ccc(F)cc3)ccc2O1`, the AC50 in [5] was 4.68 µM (active).

Turning to `O=S(=O)(Nc1ccc(N2CCCCC2)cc1)c1cccc2cccnc12`, the AC50 in experiment [4] is 0.723 µM (active).

With `C[C@@H]1CN([C@H](C)CO)C(=O)Cc2cc(NC(=O)Nc3ccc(C(F)(F)F)cc3)ccc2O[C@@H]1CN(C)Cc1ccncc1`, the AC50 in experiment [5] was 2.05 µM (active).

`CCOc1ccc(C(=O)Nc2cccc(-c3nc4cccnc4o3)c2)cc1Cl`: the AC50 is 14.1 µM (inconclusive) at Cytochrome P450 2C9, 14.1 µM (inconclusive) on Cytochrome P450 2C19, 5.01 µM (inconclusive) at Cytochrome P450 1A2 and 6.31 µM (inconclusive) at Cytochrome P450 3A4. Further, in the experiment on H9c2, the IC50 is > 79 µM (inactive).

`C[C@H](CO)N1C[C@H](C)[C@@H](CN(C)Cc2ccc(Cl)c(Cl)c2)Oc2c(NC(=O)c3ccncc3)cccc2C1=O`: the AC50 in experiment [5] was 0.08 µM (active).

Take `Cc1cc(C(=O)COc2ccccc2C(N)=O)c(C)n1C`: the IC50 in the experiment with H9c2 was > 79 µM (inactive).

As for `COc1cc(C)c(C(=O)CC(=O)c2c(C)cc(OC)cc2C)c(C)c1`, the AC50 is 8.81 µM (active) with INS1, > 70 µM (inactive) in experiment [1], 7.4 µM (active) in [2] and 21.8 µM (active) in [3]. For the same molecule, the EC50 in [6] is 6.5 µM (active); with Streptococcus, > 150 µM (not active); in experiment [7], 3.96 µM (active); in experiment [8] it was 73.2 µM (active); in experiment [9] it was 2.67 µM (active); at Streptokinase A it was 68.7 µM (active). In addition, the figures for the EC50 in [10] and in experiment [11] were > 120 µM (not active) and 10.7 µM (active), respectively.

`COc1cnn(-c2ccccc2)c(=O)c1SCc1ccc(Cl)cc1Cl`: in experiment [12], the IC50 is 1.26 µM (not active).

Regarding `Cc1ccc(S(=O)(=O)Nc2ccc3c(c2)CC(=O)N([C@H](C)CO)C[C@@H](C)[C@@H](CN(C)S(=O)(=O)c2ccc(C)cc2)O3)cc1`, the AC50 in experiment [5] was 4.11 µM (active).

As for `C[C@H](CO)N1C[C@H](C)[C@H](CN(C)C(=O)Nc2ccc(F)cc2)Oc2ncc(C#Cc3ccc(C(F)(F)F)cc3)cc2C1=O`, in experiment [5], the AC50 is 2.59 µM (active).

`C[C@H]1CN([C@@H](C)CO)C(=O)Cc2cc(NC(=O)C3CCCCC3)ccc2O[C@@H]1CN(C)Cc1ccc2c(c1)OCO2`: the AC50 in experiment [5] was 2.81 µM (active).

Take `CS/C(=N\S(=O)(=O)c1ccccc1)c1ccccc1`: in the experiment with H9c2, the IC50 is > 79 µM (inactive).

As for `O=C1Nc2cnc(Cl)nc2Nc2ccccc21`, the IC50 in the experiment on H9c2 was 18.7 µM (active).

For the molecule `Cc1ccc(N2CCN(C(=O)N3CCCC3)CC2)cc1Cl`, the AC50 in [4] was 27.2 µM (active).

For `CCN(c1ccc(NC(=O)COC(=O)c2cccs2)cc1)C(C)C`, the IC50 in experiment [12] was 1.4 µM (not active).

Regarding `CC(=O)NCCNc1nc2c(-c3ccccc3)nnn2c2ccccc12`, the IC50 in the experiment on H9c2 was > 79 µM (inactive).

For the molecule `Cc1nnc2ccc(-c3cccc(NC(=O)c4ccc(Cl)nc4)c3)nn12`, the IC50 with H9c2 was > 79 µM (inactive).

Turning to `CC(=O)N1CCN=C1SCc1cccc(F)c1`, the AC50 in experiment [4] is 6.74 µM (active).

`C[C@H](CO)N1C[C@H](C)[C@H](CN(C)Cc2ccc(Cl)c(Cl)c2)Oc2c(NC(=O)CCCCCC(=O)Nc3ccccc3N)cccc2C1=O`: the AC50 in [5] is 1.65 µM (active).

In the case of `O=C(NCC(=O)N(Cc1cccs1)C(C(=O)NC1CCCCC1)c1ccco1)c1ccco1` (configuration not stated), the IC50 with H9c2 is 7.48 µM (active).

On to `C[C@H]1CN([C@@H](C)CO)C(=O)Cc2cc(N(C)C)ccc2O[C@H]1CN(C)Cc1ccc(C(=O)Nc2ccccc2N)cc1`, for which the AC50 in experiment [5] was 1.93 µM (active).

For `C[C@@H]1CN([C@H](C)CO)C(=O)Cc2cc(NC(=O)Nc3ccc(C(F)(F)F)cc3)ccc2O[C@H]1CN(C)Cc1ccc(C(F)(F)F)cc1`, the AC50 in experiment [5] was 6.59 µM (active).

Turning to `CCOC(=O)c1cc2c(=O)n3cccc(C)c3nc2n(CCCOC)/c1=N\C(=O)c1cccnc1`, the IC50 in the experiment on H9c2 is > 79 µM (inactive).

Regarding `COc1ccc([Si](C)(C)[C@@H]2[C@@H](CCO)O[C@]3(C(=O)N4c5c(cc(OC)cc53)C(C)=CC4(C)C)[C@H]2C)cc1`, the AC50 was 16.8 µM (active) in experiment [13], 17.2 µM (active) in experiment [14] and 11.8 µM (active) in experiment [15].

Take `CC(C)C[C@H]1CNC(=S)N1CC1CCN(CC2CCC(C(C)(C)C)CC2)CC1` (some centres not stated): the AC50 was 21.5 µM (active) in experiment [1], 4.05 µM (active) in [2] and 4.48 µM (active) in experiment [3].

For the molecule `CC(=O)c1c(C)[nH]c(C(=O)OCC(=O)Nc2c(C)cccc2C)c1C`, the figures for the AC50 in [13] and in experiment [14] were 3.02 µM (active) and 0.745 µM (active), respectively.

As to `CN(C)C1=NC[C@H](Cc2ccccc2)N1CCCCc1ccccc1`, the AC50 in experiment [1] was 58.9 µM (active); in experiment [2], 8.01 µM (active); in [3] it was 4.5 µM (active).

With `Cc1noc(C)c1S(=O)(=O)N(C)C[C@@H]1Oc2ccc(NC(=O)NC3CCCCC3)cc2CC(=O)N([C@@H](C)CO)C[C@@H]1C`, the AC50 in [13] was 5.37 µM (active); in experiment [14], 7.36 µM (active); in experiment [15] it was 9.11 µM (active).

On to `Cc1nn(Cc2ccc(F)cc2)c2sc(C(=O)Nc3ccc(N4CCOCC4)cc3N3CCOCC3)cc12`, for which the IC50 in experiment [12] is 2.73 µM (not active).

Take `O=C1CSC(c2ccccn2)N1c1ccccc1` (configuration not stated): in [4], the AC50 is 0.225 µM (active).
